Measured values taken from PubChem BioAssay (NCI).
“And” between values parts separate entries of the source, which are not always exact repeats. Identical values can stand only once.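 Dose response: 5 concentrations. Exposure: 48 h. Format: 96-well plates. Endpoint: linear interpolation; highest concentration if not reached. Here, GI50 denotes the concentration required for 50% inhibition of growth. At the TGI there is no net growth.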

Experiments:
Assay in all cases: inhibition of tumour cell growth, NCI panel, 48 h
[1] = tested on: KM12 colon
[2] = tested on: ACHN renal
[3] = tested on: U251 CNS
[4] = tested on: OVCAR-3 ovarian
[5] = tested on: SN12C renal
[6] = tested on: NCI-H522 lung
[7] = tested on: PC-3 prostate
[8] = tested on: DLD-1 colon
[9] = tested on: HCC-2998 colon
[10] = tested on: SNB-78 CNS
[11] = tested on: MDA-MB-435
[12] = tested on: A498 renal
[13] = tested on: CCRF-CEM leukemia
[14] = tested on: M14 melanoma
[15] = tested on: NCI/ADR-RES ovarian
[16] = tested on: SW-620 colon
[17] = tested on: UACC-62 melanoma
[18] = tested on: HL-60(TB) leukemia
[19] = tested on: DMS 273 small cell lung
[20] = tested on: HCT-15 colon
[21] = tested on: TK-10 renal
[22] = tested on: HOP-92 NSCLC
[23] = tested on: IGROV1 ovarian
[24] = tested on: COLO 205 colon
[25] = tested on: SK-MEL-28 melanoma
[26] = tested on: SK-MEL-2 melanoma
[27] = tested on: CAKI-1 renal
[28] = tested on: A549 NSCLC
[29] = tested on: OVCAR-5 ovarian
[30] = tested on: MOLT-4 leukemia
[31] = tested on: NCI-H226 lung
[32] = tested on: NCI-H23 lung
[33] = tested on: RPMI-8226 leukemia
[34] = tested on: MDA-MB-231 breast
[35] = tested on: RXF 393 renal
[36] = tested on: HCT-116 colon
[37] = tested on: EKVX NSCLC
[38] = tested on: KM20L2 colon
[39] = tested on: XF 498 CNS
[40] = tested on: MALME-3M melanoma
[41] = tested on: UO-31 renal
[42] = tested on: SK-MEL-5 melanoma
[43] = tested on: 786-0 renal
[44] = tested on: UACC-257 melanoma
[45] = tested on: HS 578T breast
[46] = tested on: BT-549 breast
[47] = tested on: MDA-N
[48] = tested on: OVCAR-4 ovarian
[49] = tested on: SF-268 CNS
[50] = tested on: T-47D breast
[51] = tested on: DMS 114 small cell lung
[52] = tested on: K-562 leukemia
[53] = tested on: SK-OV-3 ovarian

CCCCCCCCCCCCCCCCCCOP(=O)([O-])OC1CC[N+](C)(C)CC1
GI50 [1]: 1.15 µM | TGI [1]: 2.97 µM and 1.46 µM | GI50 [2]: 6.37 µM | TGI [2]: > 10 µM and 25.8 µM | GI50 [3]: 4.02 µM | TGI [3]: > 10 µM and 26.1 µM | GI50 [4]: > 10 µM | TGI [4]: > 10 µM and 23 µM | GI50 [5]: 3.87 µM | TGI [5]: > 10 µM and 15.7 µM | GI50 [6]: 1.89 µM | TGI [6]: 5.64 µM and 12.2 µM | GI50 [7]: 0.707 µM | TGI [7]: 3.46 µM and 3.75 µM | TGI [8]: 22.4 µM | TGI [9]: 17.3 µM | TGI [10]: 46.2 µM | GI50 [11]: 5.91 µM | TGI [11]: > 10 µM and 30.3 µM | GI50 [12]: 2 µM | TGI [12]: 7.6 µM and 14.8 µM | GI50 [13]: 2.73 µM | TGI [13]: 7.55 µM and 10.5 µM | GI50 [14]: 1.87 µM | TGI [14]: 4.41 µM and 12.7 µM | GI50 [15]: > 10 µM | TGI [15]: > 10 µM and 28 µM | TGI [16]: > 10 µM and 22.4 µM | GI50 [17]: 1.17 µM | TGI [17]: > 10 µM and 22.5 µM | GI50 [18]: > 10 µM | TGI [18]: > 10 µM and 6.98 µM | TGI [19]: 14.9 µM | TGI [20]: 9.86 µM and 8.72 µM | GI50 [21]: 0.535 µM | TGI [21]: 1.89 µM and 5.34 µM | GI50 [22]: 2.1 µM | TGI [22]: 5.32 µM and 9.79 µM | GI50 [23]: 1.3 µM | TGI [23]: 4.29 µM and 10.8 µM | GI50 [24]: 1.42 µM | TGI [24]: 9.43 µM and 15.8 µM | GI50 [25]: > 10 µM | TGI [25]: > 10 µM and 34.4 µM | GI50 [26]: 8.48 µM | TGI [26]: > 10 µM and 30 µM | GI50 [27]: 2.03 µM | TGI [27]: > 10 µM and 15.6 µM | GI50 [28]: 6.98 µM | TGI [28]: > 10 µM and 24.6 µM | GI50 [29]: 2.25 µM | TGI [29]: > 10 µM and 8.82 µM | GI50 [30]: 2.15 µM | TGI [30]: 5.57 µM and 11.3 µM | GI50 [31]: > 10 µM | TGI [31]: > 10 µM and 27.1 µM | GI50 [32]: > 10 µM | TGI [32]: > 10 µM and 28.5 µM | GI50 [33]: 1.18 µM | TGI [33]: > 10 µM and 13.8 µM | GI50 [34]: 4.81 µM | TGI [34]: > 10 µM and 20.8 µM | TGI [35]: 5.55 µM and 8.04 µM | GI50 [36]: 5.24 µM | TGI [36]: > 10 µM and 20.6 µM | GI50 [37]: > 10 µM | TGI [37]: > 10 µM and 26.8 µM | TGI [38]: 6.16 µM | TGI [39]: 29.1 µM | GI50 [40]: > 10 µM | TGI [40]: > 10 µM and 26.8 µM | GI50 [41]: 4.27 µM | TGI [41]: > 10 µM and 21.7 µM | TGI [42]: 29.7 µM | GI50 [43]: 2.18 µM | TGI [43]: 5.95 µM and 8.32 µM | GI50 [44]: > 10 µM | TGI [44]: > 10 µM and 45.7 µM | GI50 [45]: > 10 µM | TGI [45]: > 10 µM and 27.5 µM | GI50 [46]: 5.76 µM | TGI [46]: > 10 µM and 27.5 µM | TGI [47]: 26.5 µM | TGI [48]: > 10 µM and 23.5 µM | GI50 [49]: 4.42 µM | TGI [49]: > 10 µM and 24.6 µM | GI50 [50]: 5.08 µM | TGI [50]: > 10 µM and 36.9 µM | TGI [51]: 26.5 µM | GI50 [52]: 3.63 µM | TGI [52]: > 10 µM and 39 µM | TGI [53]: > 10 µM and 19.1 µM

COc1cccc2c1C(CO)N1C(C#N)C3CC(C(=O)O)C(C1C2)N3C (stereo not drawn)
GI50 [1]: 0.679 µM | TGI [1]: 8.3 µM and > 26 µM | GI50 [2]: 0.294 µM | GI50 [3]: 0.0787 µM | GI50 [4]: 0.305 µM | GI50 [5]: 0.373 µM | TGI [5]: 8.34 µM and > 17.8 µM | GI50 [6]: 0.238 µM | TGI [6]: 0.874 µM and 0.389 µM | GI50 [7]: 0.462 µM | TGI [7]: > 100 µM | TGI [8]: 9.07 µM | GI50 [9]: 3.14 µM | TGI [9]: 8.21 µM and 2.78 µM | GI50 [10]: 0.334 µM | TGI [10]: 7.97 µM and 12 µM | GI50 [11]: 0.168 µM | GI50 [12]: 0.304 µM | GI50 [13]: 0.0877 µM | TGI [13]: 8.55 µM and > 17 µM | GI50 [14]: 0.363 µM | TGI [14]: 6.91 µM and 1.42 µM | GI50 [15]: 0.194 µM | TGI [15]: 0.549 µM and 1.12 µM | GI50 [16]: 0.467 µM | GI50 [17]: 0.192 µM | TGI [17]: 2.23 µM and 0.452 µM | GI50 [18]: 0.239 µM | TGI [18]: 4.53 µM and 0.811 µM | GI50 [19]: 0.335 µM | TGI [19]: 8.25 µM | GI50 [20]: 0.38 µM | TGI [21]: 9.27 µM | GI50 [22]: 0.422 µM | TGI [22]: 7.63 µM and > 18.4 µM | TGI [23]: 9.67 µM and 4.64 µM | GI50 [24]: 0.112 µM | TGI [24]: 2.66 µM and 1.2 µM | GI50 [25]: 0.391 µM | TGI [25]: 3.83 µM and 1.88 µM | GI50 [26]: 0.139 µM | TGI [26]: 2.32 µM and 0.305 µM | GI50 [27]: 0.404 µM | GI50 [28]: 4.74 µM | GI50 [29]: 0.183 µM | GI50 [30]: 0.0934 µM | GI50 [31]: 2.47 µM and 0.327 µM | TGI [31]: 5.38 µM and 1.23 µM | GI50 [32]: 0.222 µM | TGI [32]: 4.42 µM and 0.558 µM | GI50 [33]: 0.0637 µM | TGI [33]: 3.94 µM and 1.54 µM | GI50 [34]: 0.271 µM | TGI [34]: 0.933 µM and 0.521 µM | GI50 [35]: 0.203 µM | TGI [35]: 1.85 µM and 0.571 µM | GI50 [36]: 0.337 µM | TGI [36]: 5.59 µM | GI50 [37]: 0.734 µM | TGI [37]: 10.6 µM | GI50 [38]: 0.207 µM | GI50 [39]: 1.79 µM | GI50 [40]: 0.458 µM | TGI [40]: 4.6 µM and 1.23 µM | GI50 [41]: 0.365 µM | TGI [41]: 4.36 µM and 2.46 µM | GI50 [42]: 0.383 µM | TGI [42]: 4.07 µM and 0.985 µM | GI50 [43]: 0.236 µM | TGI [43]: 3.8 µM and 0.757 µM | GI50 [44]: 0.331 µM | TGI [44]: 3.96 µM and 2.11 µM | GI50 [45]: 0.538 µM | TGI [45]: 3.08 µM | TGI [46]: 0.739 µM and 1.94 µM | TGI [47]: 0.635 µM and 2.25 µM | GI50 [48]: 0.705 µM | TGI [48]: 27 µM | GI50 [49]: 0.313 µM | TGI [49]: 8.75 µM and 57.3 µM | GI50 [50]: 0.135 µM | GI50 [51]: 0.159 µM | GI50 [52]: 0.275 µM | TGI [52]: > 100 µM | GI50 [53]: 2.6 µM | TGI [53]: 8.34 µM and > 31.1 µM
